PubChem BioAssay (NCI)
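GI50 is the concentration that inhibits growth by half. Definition used: TGI = concentration required for complete inhibition of growth.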

Tests used:
Assay in all cases: DTP human tumour cell line panel, 384-well format
[1] = tested on: 786-0 renal
[2] = tested on: A498 renal
[3] = tested on: A549 NSCLC
[4] = tested on: ACHN renal
[5] = tested on: BT-549 breast
[6] = tested on: CAKI-1 renal
[7] = tested on: CCRF-CEM leukemia
[8] = tested on: COLO 205 colon
[9] = tested on: DU-145 prostate
[10] = tested on: EKVX NSCLC
[11] = tested on: HCC-2998 colon
[12] = tested on: HCT-116 colon
[13] = tested on: HCT-15 colon
[14] = tested on: HL-60(TB) leukemia
[15] = tested on: HOP-62 NSCLC
[16] = tested on: HOP-92 NSCLC
[17] = tested on: HS 578T breast
[18] = tested on: HT29 colon
[19] = tested on: IGROV1 ovarian
[20] = tested on: K-562 leukemia
[21] = tested on: KM12 colon
[22] = tested on: LOX IMVI melanoma
[23] = tested on: M14 melanoma
[24] = tested on: MALME-3M melanoma
[25] = tested on: MCF7 breast
[26] = tested on: MDA-MB-231 breast
[27] = tested on: MDA-MB-435 melanoma
[28] = tested on: MDA-MB-468 breast
[29] = tested on: MOLT-4 leukemia

**Q.** What does the source list for `C1=C/COCc2cc(ccc2OCCN2CCCC2)Nc2nccc(n2)-c2ccc(o2)COC/1`?
**A.** GI50 [1]: 1520 nM; TGI [1]: 4970 nM; GI50 [2]: 710 nM; TGI [2]: 4220 nM; GI50 [3]: 1250 nM; TGI [3]: 4060 nM; GI50 [4]: 672 nM; TGI [4]: 11400 nM; GI50 [5]: 1720 nM; TGI [5]: 3210 nM; GI50 [6]: 452 nM; TGI [6]: 2340 nM; GI50 [7]: 1530 nM; TGI [7]: 2920 nM; GI50 [8]: 1480 nM; TGI [8]: 3920 nM; GI50 [9]: 1560 nM; TGI [9]: 10500 nM; GI50 [10]: 1490 nM; TGI [10]: 3370 nM; GI50 [11]: 1270 nM; TGI [11]: 2830 nM; GI50 [12]: 852 nM; TGI [12]: 10400 nM; GI50 [13]: 950 nM; TGI [13]: 3230 nM; GI50 [14]: 479 nM; TGI [14]: 1680 nM; GI50 [15]: 1200 nM; TGI [15]: 2960 nM; GI50 [16]: 1570 nM; TGI [16]: 5460 nM; GI50 [17]: 1540 nM; TGI [17]: 2970 nM; GI50 [18]: 1290 nM; TGI [18]: 2820 nM; GI50 [19]: 433 nM; TGI [19]: 1900 nM; GI50 [20]: 1390 nM; TGI [20]: 4120 nM; GI50 [21]: 325 nM; TGI [21]: 1920 nM; GI50 [22]: 892 nM; TGI [22]: 2180 nM; GI50 [23]: 838 nM; TGI [23]: 3050 nM; GI50 [24]: 1060 nM; TGI [24]: 2270 nM; GI50 [25]: 563 nM; TGI [25]: 1980 nM; GI50 [26]: 1840 nM; TGI [26]: 9870 nM; GI50 [27]: 1470 nM; TGI [27]: 4090 nM; GI50 [28]: 1140 nM; TGI [28]: 2370 nM; GI50 [29]: 1020 nM; TGI [29]: 2190 nM
